The results in this text go back to patent US20200261463A1, “TREATMENT OF CANCER USING ARYL DIHYDRO-2H-BENZO[B][1,4]OXAZINE SULFONAMIDE COMPOUNDS” (Lycera Corporation, priority 2017, published 2020).

This assay relates to bladder cancer. The assay can be described thus: Administration of Compound A to human patient suffering from bladder cancer (CT imaging). Format: in vivo. Particulars: 450 mg orally two times per day for two months.

Turning to `CC(C)(C[C@H]1CN(S(=O)(=O)c2cccc(C(F)(F)F)c2)c2cc(-c3cc(F)cc(OC(F)F)c3)ccc2O1)C(=O)O` [Compound A], the “reduction in bladder cancer burden compared to burden at start of treatment” value is on record as 24%.
